Results reported in patent publication US9622479B2, “Boron complexes with gradual 1-methylcyclopropene releasing capability” (The United States of America, as represented by the …, priority 2014, dated 2017).

Tests used:
[1] = GC head space analysis of 1-MCP release from boron complexes mixed with water; format: physicochemical; conditions: for amount of 1-MCP released in first 24 hours (releasing curves): FIGS. 4 & 7; for consistency in releasing 1-MCP over time: FIGS. 4-7, compared with complex 2; for release of 1-MCP with time (MCP releasing curve): complex mixed vigorously with H2O in air-tight vial, head space vapor injected in GC
Protocol: Investigation of releasing 1-MCP from the boron complexes of MCP (1, 2, 3,4): Without being bound by theory, due to the moisture sensitivity of the boron complexes, the nucleophilic attack of hydroxide ion (OH—) toward the boron atom triggered the breaking of the B-C bond releasing 1-MCP as a gas.
(§1) GC analysis of dicyclohexyl-(2-methylene-cyclopropyl)-borane (1): 140 mg of the complex was mixed vigorously with 0.6 mL of H2O in a 1.5 mL air-tight vial. The vapor collected (8 μl) from the head space of the solution was injected in a GC with an MXTR-1 column. The data were compared with a reference standard of 1-MCP.
as §1, with “dihexyl-(2-methylene-cyclopropyl)-borane (2): 291” for “dicyclohexyl-(2-methylene-cyclopropyl)-borane (1): 140”, “1.0” for “0.6”, “3” for “1.5”, “(100 μL)” for “(8 μl)”
as §1, with “tris-(2-methylene-cyclopropyl)-borane (3): 94” for “dicyclohexyl-(2-methylene-cyclopropyl)-borane (1): 140”, “0.4” for “0.6”, “μL)” for “μl)”
GC analysis of diphenyl-(2-methylene-cyclopropyl)-borane (4): 393 mg of the complex was mixed vigorously with 2.0 mL of H2O in a 3 mL air-tight vial. The vapor collected from the head space of the solution was injected in a Hewlett-Packard 5890 GC with capillary column (30 m×0.25 mm i.d.) coated with a 0.25 μm film of 5% phenyl methyl silicon and a flame ionization detector. The temperature of GC was programmed at 30° C. isothermal with an injection point temperature of 50° C. The detector was operated at 230° C. and sample was injected under split less condition. Helium was used as carrier gas with a 1.5 mL/min column flow.
However, during this analysis it was observed that some other compounds were also released. Those compounds formed due to the breakage of other B-C bonds were cyclohexane and cyclohexanol from complex 1 or hexane and hexanol from complex 2. Complex 3 also released some byproducts either by incomplete hydrolysis of the complex or Markovnikov addition of H2O.

[2] = 1-MCP concentration inside the jars by GC analysis after 24 hour treatment; format: physicochemical; conditions: 1-gal airtight jars, equivalent amount of complex, 2 mL water
Protocol: (§2) Boron complex 1 was tested on green tomatoes. Six 3.9 L air tight glass jars were taken for investigation containing five green tomatoes each. The tomatoes in three jars were treated with 1-MCP released from the reaction between Boron complex 1 and water in a 14 mL vial with continuous stirring, which was placed inside the jars. The other jars were kept in identical condition without placing any boron complex inside. The treatment was carried out for 24 hours. The concentration level of 1-MCP was determined (9 to 13 μLL^-1) after 24 hours of reaction by GC analysis using 2-methyl-1-propene as a standard. After 24 hours treatment all the tomatoes were kept in open environment and monitored for their color changes.
(§3) For the comparative studies between DCMB (1) and DPMB (4), experiment was performed with three 1-gal airtight jars containing eight tomatoes each which were collected from the same source but different time. One jar was used as blank containing no complex and the other two jars Were treated with equivalent amount of DCMB (1) (393 mg) and DPMB (4) (376.5 mg) complex respectively arid water (2 mL), The concentration of released 1-MCP inside the jars was calculated by GC analysis after 24 hour treatment The treated and untreated tomatoes were subjected to quality analysis under identical conditions.

green tomatoes = assay: Green tomatoes treated with 1-MCP released from Boron complex 1 and water; color and firmness quality analysis; format: in vivo
Protocol: as §2, with “changes. Quality Analysis: Noninoculated tomatoes were treated with Boron complex 1 as described before and kept in open air for 9 days. Quality analysis (color and firmness) was performed at 22±2° C. Color was measured with a Hunter UltraScan® VIS colorimeter (Hunter Associates Lab, Reston, Va.) and firmness was evaluated with a TA-XT2i Texture Analyzer (Texture Technologies Corp., Scarsdale, N.Y.). Four measurements were taken for each tomato for color and firmness. The color of the tomatoes was measured seven times during the investigation period and firmness was determined at the end of 9th day.” for “changes.”

tomatoes = assay: Comparative quality analysis of tomatoes treated with DCMB (1) and DPMB (4); format: in vivo; conditions: for darkness (L*) of tomatoes during storage / redness (a*/b*) of tomatoes during storage: 7 days storage at 22±2° C.; for darkness (L*) of tomatoes during storage: FIG. 14; for redness (a*/b*) of tomatoes during storage: FIG. 15; for average firmness of tomatoes: day 7, storage at 22±2° C., FIG. 16
Protocol: as §3
Quality Analysis: Noninoculated tomatoes were treated with Boron complex 1 as described before and kept in open air for 9 days. Quality analysis (color and firmness) was performed at 22±2° C. Color was measured with a Hunter UltraScan® VIS colorimeter (Hunter Associates Lab, Reston, Va.) and firmness was evaluated with a TA-XT2i Texture Analyzer (Texture Technologies Corp., Scarsdale, N.Y.). Four measurements were taken for each tomato for color and firmness. The color of the tomatoes was measured seven times during the investigation period and firmness was determined at the end of 9th day.
Similar results were found in a*/b* value (FIG. 15). […] The firmness data of the treated tomatoes was compared to that of non-treated tomatoes at Day 7 (NT-7D, Exp 2) and also at Day 0 (NT-OD, Exp 2), which were collected from the same batch. […] However, a significant difference was observed between the non-treated tomatoes at day 7 (2.68 kg) and non-treated fruits at day 0.

Row | Compound | amount of 1-MCP released in first 24 hours (releasing curves) [1] | consistency in releasing 1-MCP over time [1] | area ratio of released 1-MCP over cyclohexane vs. temperature ([1]; GC experiment at different temperatures, FIG. 8) | release of 1-MCP with time (MCP releasing curve) [1] | concentration of 1-MCP [2] | tomato color at the end of nine days (green tomatoes; 24 hours treatment, then open environment, all untreated turned red) | tomato color after 4 days (green tomatoes; 24 hours treatment, then open environment, untreated turned yellow) | darkness (L*) of tomatoes during storage (green tomatoes; 9 days storage at 22±2° C., FIG. 10) | redness (a*/b*) of tomatoes during storage (green tomatoes; 9 days storage at 22±2° C., FIG. 11) | firmness of tomatoes (green tomatoes; end of 9th day, storage at 22±2° C., FIG. 12) | foreign spots on the surface of the treated tomatoes (green tomatoes; in vivo) | darkness (L*) of tomatoes during storage (tomatoes) | redness (a*/b*) of tomatoes during storage (tomatoes) | average firmness of tomatoes (tomatoes)
1 | C=C1CC1B(C1CCCCC1)C1CCCCC1 (centres unmarked) [complex 1, dicyclohexyl-(2-methylene-cyclopropyl)-borane] | near to its highest point in first 24 hours | more consistent in releasing 1-MCP over time | increased at lower temperature | released gradually with time | 5 μLL-1 | half of the treated tomatoes were still green | remained green | did not significantly change | increased slowly but not in significant value | 1.42 (±0.35) kg | No foreign spots were observed | did not significantly change | did not change significantly or increased very slowly | 4.20 kg
2 | C=C1CC1B(CCCCCC)CCCCCC (centres unmarked) [complex 2, dihexyl-(2-methylene-cyclopropyl)-borane] |  |  |  | released gradually with time |  |  |  |  |  |  |  |  |  | 
3 | C=C1CC1B(C1CC1=C)C1CC1=C (centres unmarked) [complex 3, tris-(2-methylene-cyclopropyl)-borane] |  | more consistent in releasing 1-MCP over time |  | released gradually with time |  |  |  |  |  |  |  |  |  | 
4 | C=C1CC1B(c1ccccc1)c1ccccc1 (centres unmarked) [complex 4, diphenyl-(2-methylene-cyclopropyl)-borane] | relatively low in first 24 hours |  |  | released gradually with time | 1 μLL-1 |  |  |  |  |  |  | remained in the middle | slower increase than the non-treated tomatoes | 3.10 kg
